Reference: BigSolDB 2.1

O=C(O)CC(O)C(=O)O (stereo unspecified)
solubility (mole fraction)
Conditions | 298.15 K | 303.15 K | 308.15 K | 313.15 K | 318.15 K | 323.15 K | 328.15 K | 333.15 K
in ethanol | 0.109 | 0.12 | 0.136 | 0.148 | 0.165 | 0.184 | 0.207 | 0.227
in water | 0.15 | 0.161 | 0.178 | 0.196 | 0.213 | 0.229 | 0.249 | 0.271
